The record followed here is patent publication US8569344B2, “N-piperidinyl acetamide derivatives as calcium channel blockers” (Zalicus Pharmaceuticals Ltd., priority 2008, dated 2013).

In assay [1] the target is T1, human α1H T-type channels (Homo sapiens, UniProt O95180).
T1 construct: expressed in transfected cells; host or cells: HEK 293
Description: T-type calcium channel block, whole cell patch clamp in HEK cells (α1H). Format: cell-based. As to conditions: HEK cells, patch clamp, mainly non-inactivated protocol; values above 10 μM shown as 10 μM; read-out: T-type Calcium Channel Block α1H IC50.

In assay [2] the target is T2, human α1G T-type channels (Homo sapiens, UniProt O43497).
T2 construct: expressed in transfected cells; host or cells: HEK 293
Description: T-type calcium channel block, whole cell patch clamp in HEK cells (α1G). To be noted: HEK cells, patch clamp, mainly non-inactivated protocol; values above 10 μM shown as 10 μM, below 0.30 μM shown as 0.30 μM; read-out: T-type Calcium Channel Block α1G IC50. The assay is classed as cell-based.

T1 sequence (O95180 whole entry): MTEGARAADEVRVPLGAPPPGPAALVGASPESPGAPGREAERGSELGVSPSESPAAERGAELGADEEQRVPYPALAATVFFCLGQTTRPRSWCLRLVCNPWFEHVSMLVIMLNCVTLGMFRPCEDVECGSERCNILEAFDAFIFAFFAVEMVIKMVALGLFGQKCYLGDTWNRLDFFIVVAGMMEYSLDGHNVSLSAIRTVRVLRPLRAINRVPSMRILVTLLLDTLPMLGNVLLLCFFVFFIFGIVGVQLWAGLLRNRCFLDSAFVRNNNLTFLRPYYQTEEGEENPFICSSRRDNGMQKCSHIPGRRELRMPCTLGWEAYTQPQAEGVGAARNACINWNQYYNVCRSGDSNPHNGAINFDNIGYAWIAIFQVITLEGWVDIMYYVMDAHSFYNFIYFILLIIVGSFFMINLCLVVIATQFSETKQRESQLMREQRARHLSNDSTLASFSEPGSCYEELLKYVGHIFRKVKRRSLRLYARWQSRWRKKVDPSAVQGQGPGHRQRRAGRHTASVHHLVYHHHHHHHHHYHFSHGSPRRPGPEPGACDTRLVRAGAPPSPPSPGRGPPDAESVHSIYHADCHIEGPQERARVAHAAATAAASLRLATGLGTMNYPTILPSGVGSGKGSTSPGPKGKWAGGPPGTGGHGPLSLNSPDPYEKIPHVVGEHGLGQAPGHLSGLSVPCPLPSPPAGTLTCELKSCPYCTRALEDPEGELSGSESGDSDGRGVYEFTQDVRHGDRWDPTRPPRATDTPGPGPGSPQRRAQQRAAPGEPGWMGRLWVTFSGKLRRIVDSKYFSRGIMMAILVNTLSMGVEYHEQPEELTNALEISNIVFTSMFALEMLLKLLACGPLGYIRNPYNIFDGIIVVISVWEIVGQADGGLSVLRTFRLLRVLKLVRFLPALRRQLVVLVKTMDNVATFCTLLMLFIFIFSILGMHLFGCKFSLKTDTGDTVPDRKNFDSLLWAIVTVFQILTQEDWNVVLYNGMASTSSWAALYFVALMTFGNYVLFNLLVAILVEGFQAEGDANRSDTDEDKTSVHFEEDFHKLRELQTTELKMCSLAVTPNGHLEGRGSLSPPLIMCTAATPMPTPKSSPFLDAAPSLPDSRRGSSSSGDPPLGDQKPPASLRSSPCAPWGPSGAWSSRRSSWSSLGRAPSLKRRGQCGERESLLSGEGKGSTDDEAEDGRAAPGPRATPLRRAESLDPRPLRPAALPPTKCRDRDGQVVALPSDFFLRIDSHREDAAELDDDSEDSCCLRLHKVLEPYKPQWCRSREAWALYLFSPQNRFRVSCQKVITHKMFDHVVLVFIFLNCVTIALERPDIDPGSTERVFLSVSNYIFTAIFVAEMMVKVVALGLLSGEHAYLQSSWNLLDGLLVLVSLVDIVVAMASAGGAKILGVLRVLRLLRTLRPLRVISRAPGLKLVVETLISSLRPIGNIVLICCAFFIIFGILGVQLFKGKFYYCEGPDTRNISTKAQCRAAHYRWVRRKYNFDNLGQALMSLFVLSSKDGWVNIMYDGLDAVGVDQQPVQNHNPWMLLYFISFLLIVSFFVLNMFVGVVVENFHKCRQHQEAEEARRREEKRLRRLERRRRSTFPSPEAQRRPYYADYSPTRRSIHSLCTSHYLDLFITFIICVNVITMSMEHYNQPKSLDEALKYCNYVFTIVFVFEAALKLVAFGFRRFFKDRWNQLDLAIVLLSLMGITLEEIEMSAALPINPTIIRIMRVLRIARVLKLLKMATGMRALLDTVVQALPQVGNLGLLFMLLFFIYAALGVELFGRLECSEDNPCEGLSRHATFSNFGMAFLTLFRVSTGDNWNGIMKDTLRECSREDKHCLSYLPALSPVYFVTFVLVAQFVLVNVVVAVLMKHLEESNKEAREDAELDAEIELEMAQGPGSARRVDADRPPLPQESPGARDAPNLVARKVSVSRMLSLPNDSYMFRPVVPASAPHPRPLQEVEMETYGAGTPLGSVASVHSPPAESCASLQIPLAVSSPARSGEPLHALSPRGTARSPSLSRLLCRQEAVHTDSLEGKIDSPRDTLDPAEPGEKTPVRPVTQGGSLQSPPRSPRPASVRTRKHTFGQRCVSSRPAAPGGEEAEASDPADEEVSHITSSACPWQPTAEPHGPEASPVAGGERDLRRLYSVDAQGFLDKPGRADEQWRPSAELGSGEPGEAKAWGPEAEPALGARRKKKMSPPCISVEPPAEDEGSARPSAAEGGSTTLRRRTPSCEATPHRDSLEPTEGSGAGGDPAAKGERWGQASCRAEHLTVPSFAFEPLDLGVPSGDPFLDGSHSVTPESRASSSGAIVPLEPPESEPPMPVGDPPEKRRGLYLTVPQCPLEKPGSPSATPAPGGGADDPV
T2 sequence (O43497 whole entry): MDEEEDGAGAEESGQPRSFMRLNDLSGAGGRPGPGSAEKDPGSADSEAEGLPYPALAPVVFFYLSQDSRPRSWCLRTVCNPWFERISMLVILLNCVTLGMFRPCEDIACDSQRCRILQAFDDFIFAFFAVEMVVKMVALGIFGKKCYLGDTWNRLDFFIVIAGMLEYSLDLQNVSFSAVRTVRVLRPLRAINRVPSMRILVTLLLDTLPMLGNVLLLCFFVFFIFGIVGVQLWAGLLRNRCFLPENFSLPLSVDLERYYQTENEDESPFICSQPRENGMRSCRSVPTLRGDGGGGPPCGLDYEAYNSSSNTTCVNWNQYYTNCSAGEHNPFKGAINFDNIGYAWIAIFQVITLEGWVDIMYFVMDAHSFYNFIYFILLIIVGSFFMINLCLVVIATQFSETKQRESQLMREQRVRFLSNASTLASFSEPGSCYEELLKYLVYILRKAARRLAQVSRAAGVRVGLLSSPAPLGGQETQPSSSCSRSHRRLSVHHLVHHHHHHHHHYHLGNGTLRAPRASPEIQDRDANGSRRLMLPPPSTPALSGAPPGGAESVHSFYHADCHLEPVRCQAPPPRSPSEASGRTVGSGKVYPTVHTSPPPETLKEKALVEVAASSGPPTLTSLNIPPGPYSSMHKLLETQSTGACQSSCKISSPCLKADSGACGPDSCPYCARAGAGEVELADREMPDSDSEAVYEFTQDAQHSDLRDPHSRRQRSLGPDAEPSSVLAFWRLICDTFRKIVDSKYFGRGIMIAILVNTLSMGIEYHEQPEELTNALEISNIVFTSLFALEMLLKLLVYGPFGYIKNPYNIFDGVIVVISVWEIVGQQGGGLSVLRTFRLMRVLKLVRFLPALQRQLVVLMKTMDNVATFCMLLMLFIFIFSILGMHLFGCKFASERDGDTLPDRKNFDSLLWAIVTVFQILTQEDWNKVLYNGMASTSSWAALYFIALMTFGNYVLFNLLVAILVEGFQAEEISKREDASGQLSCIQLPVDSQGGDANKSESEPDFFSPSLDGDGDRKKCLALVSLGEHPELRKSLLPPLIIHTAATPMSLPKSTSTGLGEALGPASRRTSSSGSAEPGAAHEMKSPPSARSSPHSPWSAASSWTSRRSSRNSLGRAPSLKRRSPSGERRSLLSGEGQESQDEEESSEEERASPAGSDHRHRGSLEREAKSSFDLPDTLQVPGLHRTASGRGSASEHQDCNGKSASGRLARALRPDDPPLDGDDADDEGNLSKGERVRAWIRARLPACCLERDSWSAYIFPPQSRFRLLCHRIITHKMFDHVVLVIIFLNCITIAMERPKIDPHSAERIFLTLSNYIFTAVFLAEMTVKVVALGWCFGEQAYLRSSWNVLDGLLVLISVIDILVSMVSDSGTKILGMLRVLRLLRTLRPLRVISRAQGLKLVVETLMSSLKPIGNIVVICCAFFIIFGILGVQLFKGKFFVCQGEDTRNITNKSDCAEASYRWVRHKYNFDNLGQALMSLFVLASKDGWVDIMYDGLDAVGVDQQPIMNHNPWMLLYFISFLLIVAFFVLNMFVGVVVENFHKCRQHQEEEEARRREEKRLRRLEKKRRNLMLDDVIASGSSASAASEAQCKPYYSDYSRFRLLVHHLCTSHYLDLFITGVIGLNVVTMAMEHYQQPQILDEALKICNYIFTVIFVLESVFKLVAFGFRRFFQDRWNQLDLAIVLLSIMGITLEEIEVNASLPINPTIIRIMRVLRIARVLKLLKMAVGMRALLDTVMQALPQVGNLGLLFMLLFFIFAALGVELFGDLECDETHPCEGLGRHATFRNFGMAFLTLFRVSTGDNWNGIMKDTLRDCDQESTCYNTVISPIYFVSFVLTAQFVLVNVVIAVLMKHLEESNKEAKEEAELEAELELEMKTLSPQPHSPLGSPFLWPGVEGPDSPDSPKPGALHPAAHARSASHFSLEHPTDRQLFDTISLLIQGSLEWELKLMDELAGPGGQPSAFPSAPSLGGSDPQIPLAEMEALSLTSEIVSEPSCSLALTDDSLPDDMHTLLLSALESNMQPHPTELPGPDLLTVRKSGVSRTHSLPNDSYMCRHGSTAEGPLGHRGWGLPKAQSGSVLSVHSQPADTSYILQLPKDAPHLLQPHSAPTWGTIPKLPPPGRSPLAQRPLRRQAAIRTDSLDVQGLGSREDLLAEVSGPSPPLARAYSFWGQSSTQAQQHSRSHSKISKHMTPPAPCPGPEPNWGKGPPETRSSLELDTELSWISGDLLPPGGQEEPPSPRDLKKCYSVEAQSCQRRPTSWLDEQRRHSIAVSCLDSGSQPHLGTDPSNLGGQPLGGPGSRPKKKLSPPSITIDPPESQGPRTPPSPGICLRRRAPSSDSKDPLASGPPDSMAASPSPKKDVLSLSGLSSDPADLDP

Take `O=C(/C=C/c1cc(F)cc(F)c1)NCC1CCN(CCNS(=O)(=O)C2CC2)CC1` [Compound 231, (E)-N-((1-(2-(cyclopropanesulfonamido)ethyl)piperidin-4-yl)methyl)-3-(3,5-difluorophenyl)acrylamide]: the half-maximal inhibitory concentration (IC50) in assay [1] and in assay [2] was greater than 10 µM each time.
Take `Cc1cc(F)cc(C(=O)NCC2CCN(CCNS(=O)(=O)C(C)(C)C)CC2)c1` [Compound 575, N-((1-(2-(1,1-dimethylethylsulfonamido)ethyl)piperidin-4-yl)methyl)-3-fluoro-5-methylbenzamide]: the IC50 stood at 1.04 µM in assay [1] and 1.25 µM in assay [2].
For `CC(C)(C)NCC(=O)N1CCC(CNC(=O)c2cc(F)cc(C(F)(F)F)c2)CC1` [Compound 265, N-((1-(2-(tert-butylamino)acetyl)piperidin-4-yl)methyl)-3-fluoro-5-(trifluoromethyl)benzamide], in that order: 3.76 µM and 2.06 µM.
Take `CC(C)(F)CNC(=O)CN1CCC(CNC(=O)c2cc(C(F)(F)F)cc(C(F)(F)F)c2)CC1` [Compound 555, N-((1-(2-(2-fluoro-2-methylpropyl-amino)-2-oxoethyl)piperidin-4-yl)methyl)-3,5-bis(trifluoromethyl) benzamide]: the half-inhibitory concentration (IC50) in assay [1] turned out to be 0.89 µM; in assay [2], 0.53 µM.
For the compound `CCC(C)(C)NC(=O)CN1CCC(CNC(=O)c2cc(C(F)(F)F)cc(C(F)(F)F)c2)CC1` [Compound 346, N-((1-(2-oxo-2-(tert-pentylamino)ethyl)piperidin-4-yl)methyl)-3,5-bis(trifluoromethyl) benzamide], the IC50 is 0.05 µM in assay [1] and less than 0.3 µM in assay [2].
For `CC(C)(C)OC(=O)NCCN1CCC(CNC(=O)c2cc(C(F)(F)F)cc(C(F)(F)F)c2)CC1` [Compound 35, tert-butyl 2-(4-((3,5-bis(trifluoromethyl)benzamido)methyl)piperidin-1-yl)ethylcarbamate], in that order: 0.16 µM and 0.41 µM.
The corresponding values for `O=C(NCC1CCN(CCNS(=O)(=O)C2CC2)CC1)c1cccc(C(F)(F)F)c1` [Compound 228, N-((1-(2-(cyclopropanesulfonamido)ethyl)piperidin-4-yl)methyl)-3-(trifluoromethyl)benzamide] are 2.35 µM and 1.67 µM.
On to `CC(C)(C)NS(=O)(=O)CCN1CCC(CNC(=O)c2cc(F)cc(C(F)(F)F)c2)CC1` [Compound 514, N-((1-(2-(N-tert-butylsulfamoyl)ethyl)piperidin-4-yl)methyl)-3-fluoro-5-(trifluoromethyl)benzamide], for which the values for the IC50 in assay [1] and in assay [2] were 0.31 µM and less than 0.3 µM, respectively.
The corresponding values for `CC(C)(C)OC(=O)NCCN1CCC(CNC(=O)c2cccc(OC(F)(F)F)c2)CC1` [Compound 44, tert-butyl 2-(4-((3-(trifluoromethoxy)benzamido)methyl)piperidin-1-yl)ethylcarbamate] are 0.32 µM and 0.62 µM.
For `CC(C)(F)CNC(=O)CN1CCC(CNC(=O)c2cccc(Cl)c2)CC1` [Compound 554, 3-chloro-N-((1-(2-(2-fluoro-2-methylpropylamino)-2-oxoethyl)piperidin-4-yl)methyl)benzamide], in that order: greater than 10 µM and greater than 10 µM.
The corresponding values for `Cc1ccc(-c2csc(NC(=O)CC3CCN(CC(O)C(C)(C)C)CC3)n2)cc1` (stereo not drawn) [Compound 172, 2-(1-(2-hydroxy-3,3-dimethylbutyl)piperidin-4-yl)-N-(4-p-tolylthiazol-2-yl)acetamide] are greater than 10 µM and 1.62 µM.
Consider `CCCNC(=O)CN1CCC(CNC(=O)c2cc(C)cc(F)c2)CC1` [Compound 446, 3-fluoro-5-methyl-N-((1-(2-oxo-2-(propylamino)ethyl)piperidin-4-yl)methyl)benzamide], for which the IC50 in assay [1] and in assay [2] was greater than 10 µM each time.
Turning to `Cc1cc(C)cc(C(=O)NCC2CCN(CC(=O)NC(C)C)CC2)c1` [Compound 436, N-((1-(2-(isopropylamino)-2-oxoethyl)piperidin-4-yl)methyl)-3,5-dimethylbenzamide], the IC50 in assay [1] and in assay [2] was greater than 10 µM throughout.
`CC(C(=O)N1CCC[C@@H]1C(F)(F)F)N1CCC(CNC(=O)c2cc(F)cc(Cl)c2)CC1` (stereo partly drawn) [Compound 558, 3-chloro-5-fluoro-N-((1-(1-oxo-1-((R)-2-(trifluoromethyl)pyrrolidin-1-yl)propan-2-yl)piperidin-4-yl)methyl) benzamide]: the figures for the IC50 in assay [1] and in assay [2] were 0.46 µM and less than 0.3 µM, respectively.
For `COc1cc(F)cc(C(=O)NCC2CCN(CC(=O)NC3(C4CCOCC4)CC3)CC2)c1` [Compound 562, 3-fluoro-5-methoxy-N-((1-(2-oxo-2-(1-(tetrahydro-2H-pyran-4-yl)cyclopropylamino)ethyl)piperidin-4-yl)methyl)benzamide], in that order: 0.66 µM and 0.4 µM.
The corresponding values for `CC(C)(C)NC(=O)CN1CCC(CNC(=O)/C=C/c2cc(F)cc(F)c2)CC1` [Compound 369, (E)-N-((1-(2-(tert-butylamino)-2-oxoethyl)piperidin-4-yl)methyl)-3-(3,5-difluorophenyl)acrylamide] are 7.01 µM and 6.91 µM.
For `COc1cc(OC)cc(C(=O)NCC2CCN(CC(=O)NC(C)C)CC2)c1` [Compound 439, N-((1-(2-(isopropylamino)-2-oxoethyl)piperidin-4-yl)methyl)-3,5-dimethoxybenzamide], in that order: 2.17 µM and 3.28 µM.
Consider `CC(C)(C)C(=O)NCCN1CCC(CNC(=O)/C=C/c2cc(F)cc(F)c2)CC1` [Compound 297, (E)-3-(3,5-difluorophenyl)-N-((1-(2-pivalamidoethyl)piperidin-4-yl)methyl)acrylamide], for which the concentration for half-maximal inhibition (IC50) in assay [1] and in assay [2] was greater than 10 µM each time.
In the case of `O=C(NCC1CCN(CC(=O)N2CCC[C@H]2C(F)(F)F)CC1)c1cccc(C(F)(F)F)c1` [Compound 467, (S)-N-((1-(2-oxo-2-(2-(trifluoromethyl)pyrrolidin-1-yl)ethyl)piperidin-4-yl)methyl)-3-(trifluoromethyl)benzamide], the IC50 in assay [1] was 0.17 µM; in assay [2], less than 0.3 µM.
The corresponding values for `C[C@@H]1CCCCN1CC(=O)N1CCC(CNC(=O)c2cc(C(F)(F)F)cc(C(F)(F)F)c2)CC1` [Compound 252, (R)-N-((1-(2-(2-methylpiperidin-1-yl)acetyl)piperidin-4-yl)methyl)-3,5-bis(trifluoromethyl)benzamide] are 2.34 µM and 2.43 µM.
The corresponding values for `COCC(C)(C)NC(=O)CN1CCC(CNC(=O)c2cc(F)cc(C(F)(F)F)c2)CC1` [Compound 564, 3-fluoro-N-((1-(2-(1-methoxy-2-methylpropan-2-ylamino)-2-oxoethyl)piperidin-4-yl)methyl)-5-(trifluoromethyl)benzamide] are 0.1 µM and less than 0.3 µM.
Regarding `CCCCCNCC(=O)N1CCC(CNC(=O)c2cc(F)cc(C(F)(F)F)c2)CC1` [Compound 267, 3-fluoro-N-((1-(2-(pentylamino)acetyl)piperidin-4-yl)methyl)-5-(trifluoromethyl)benzamide], the IC50 turned out to be 0.87 µM in assay [1] and 0.39 µM in assay [2].
For `COCC(COC)NC(=O)CN1CCC(CNC(=O)c2cc(F)cc(C(F)(F)F)c2)CC1` [Compound 354, N-((1-(2-(1,3-dimethoxypropan-2-ylamino)-2-oxoethyl)piperidin-4-yl)methyl)-3-fluoro-5-(trifluoromethyl) benzamide], in that order: 2.14 µM and 1.84 µM.
For `O=C(NCC1CCN(C(=O)[C@@H]2CCCCN2)CC1)c1cc(C(F)(F)F)cc(C(F)(F)F)c1` [Compound 88, (S)-N-((1-(piperidine-2-carbonyl)piperidin-4-yl)methyl)-3,5-bis(trifluoromethyl)benzamide], in that order: greater than 10 µM and greater than 10 µM.
For `O=C(NCC1CCN(CC(=O)N2CCC(F)CC2)CC1)c1cc(F)cc(C(F)(F)F)c1` [Compound 356, 3-fluoro-N-((1-(2-(4-fluoropiperidin-1-yl)-2-oxoethyl)piperidin-4-yl)methyl)-5-(trifluoromethyl)benzamide], in that order: 0.83 µM and 0.55 µM.
On to `CC1(NC(=O)CN2CCC(CNC(=O)c3cc(F)cc(C(F)(F)F)c3)CC2)CCC1` [Compound 352, 3-fluoro-N-((1-(2-(1-methylcyclo-butylamino)-2-oxoethyl)piperidin-4-yl)methyl)-5-(trifluoromethyl) benzamide], for which the IC50 in assay [1] was 0.08 µM; in assay [2], less than 0.3 µM.
On to `O=C(CN1CCC(CNC(=O)c2cccc(Cl)c2)CC1)NN1CCCCC1` [Compound 527, 3-chloro-N-((1-(2-oxo-2-(piperidin-1-ylamino)ethyl)piperidin-4-yl)methyl)benzamide], for which the figures for the IC50 in assay [1] and in assay [2] were 2.84 µM and 2.65 µM, respectively.
For `CC(C)COC(=O)NCCN1CCC(CNC(=O)c2cc(C(F)(F)F)cc(C(F)(F)F)c2)CC1` [Compound 37, isobutyl 2-(4-((3,5-bis(trifluoromethyl)benzamido)methyl)piperidin-1-yl)ethylcarbamate], in that order: 0.17 µM and less than 0.3 µM.
For `O=C(NCC1CCN(C(=O)CNC2CCCC2)CC1)c1cc(C(F)(F)F)cc(C(F)(F)F)c1` [Compound 247, N-((1-(2-(cyclopentylamino)acetyl)piperidin-4-yl)methyl)-3,5-bis(trifluoromethyl)benzamide], in that order: 0.5 µM and less than 0.3 µM.
For `CC(C)(C)OC(=O)NC1(C(=O)NCCN2CCC(CNC(=O)c3cc(F)cc(C(F)(F)F)c3)CC2)CCC1` [Compound 572, tert-buyl 1-(2-(4-((3-fluoro-5-(trifluoromethyl)benzamido)methyl)piperidin-1-yl)ethylcarbamoyl) cyclobutylcarbamate], in that order: 1.56 µM and 0.49 µM.
